From ChEMBL document CHEMBL1201862, “PubChem BioAssay data set” (2004)
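How tested: cells in 96-well plates exposed to compound for 48 hours at five concentrations. GI50: concentration for 50% inhibition of growth.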 The source made the active and inactive calls. No stated cut-off is given here; in the data, active = GI50 up to about 1.1 µM and inactive = higher.

Key:
Experiment in all cases: NCI tumour cell line growth inhibition, 48 h
[1] = tested on: SW-620
[2] = tested on: RPMI-8226
[3] = tested on: OVCAR-3
[4] = tested on: MOLT-4
[5] = tested on: OVCAR-5
[6] = tested on: DU-145
[7] = tested on: IGROV-1
[8] = tested on: HCC 2998
[9] = tested on: SK-MEL-5
[10] = tested on: SK-MEL-2
[11] = tested on: MDA-MB-435
[12] = tested on: NCI-H460
[13] = tested on: KM12
[14] = tested on: Malme-3M
[15] = tested on: UACC-62
[16] = tested on: NCI-H23
[17] = tested on: HCT-15
[18] = tested on: CCRF-CEM
[19] = tested on: HL-60
[20] = tested on: A498

Structure (SMILES)	GI50 [1]	GI50 [2]	GI50 [3]	GI50 [4]	GI50 [5]	GI50 [6]	GI50 [7]	GI50 [8]	GI50 [9]	GI50 [10]	GI50 [11]	GI50 [12]	GI50 [13]	GI50 [14]	GI50 [15]	GI50 [16]	GI50 [17]	GI50 [18]	GI50 [19]	GI50 [20]
O=C(c1ccccc1)N1C(=S)N(c2ccc([N+](=O)[O-])cc2)C(=N/c2ccccc2)/C1=N\c1ccccc1	> 100 µM (inactive)	> 100 µM (inactive)	> 100 µM (inactive)	19.5 µM (inactive)	> 100 µM (inactive)	> 100 µM (inactive)	> 100 µM (inactive)	> 100 µM (inactive)	> 100 µM (inactive)	> 100 µM (inactive)	> 100 µM (inactive)	72.1 µM (inactive)	> 100 µM (inactive)	> 100 µM (inactive)	97.5 µM (inactive)	> 100 µM (inactive)	65.2 µM			
Fc1cccc(C2SCc3nc4cc5ccccc5cc4n32)c1 (stereo unspecified)	> 100 µM (inactive)	> 100 µM (inactive)	> 100 µM (inactive)	> 100 µM (inactive)	> 100 µM (inactive)	> 100 µM (inactive)	> 100 µM (inactive)	> 100 µM (inactive)		> 100 µM (inactive)	> 100 µM (inactive)		> 100 µM (inactive)	> 100 µM (inactive)	> 100 µM (inactive)	> 100 µM (inactive)	> 100 µM	> 100 µM (inactive)		
O=C1OC(C(O)CO)C(C(O)CO)OC1=O (stereo unspecified)	> 10 µM (inactive)	> 10 µM (inactive)	> 10 µM (inactive)	> 10 µM (inactive)	> 10 µM (inactive)		> 10 µM (inactive)	> 10 µM (inactive)	> 10 µM (inactive)		> 10 µM (inactive)	> 10 µM (inactive)	> 10 µM (inactive)	> 10 µM (inactive)	> 10 µM (inactive)	> 10 µM (inactive)	> 10 µM	> 10 µM (inactive)	> 10 µM (inactive)	> 10 µM (inactive)
CCCCCCCCOP(=O)(O)OP(=O)(O)OCC1OC(n2ccc(N)nc2=O)C(O)C1O (stereo unspecified)	> 100 µM (inactive)	> 100 µM (inactive)	> 100 µM (inactive)	> 100 µM (inactive)	> 100 µM (inactive)		> 100 µM (inactive)	> 100 µM (inactive)	> 100 µM (inactive)	> 100 µM (inactive)	> 100 µM (inactive)	> 100 µM (inactive)	> 100 µM (inactive)	> 100 µM (inactive)	> 100 µM (inactive)	> 100 µM (inactive)	> 100 µM	> 100 µM (inactive)	> 100 µM (inactive)	> 100 µM (inactive)
CC1(C)C(O)C[C@]23CCC[C@](C)(C[C@@H](O)C12)C3 (stereo partly specified)	> 100 µM (inactive)	> 100 µM (inactive)	> 100 µM (inactive)	> 100 µM (inactive)	> 100 µM (inactive)		> 100 µM (inactive)		> 100 µM (inactive)	> 100 µM (inactive)	> 100 µM (inactive)	> 100 µM (inactive)	> 100 µM (inactive)	> 100 µM (inactive)	> 100 µM (inactive)	> 100 µM (inactive)	> 100 µM	> 100 µM (inactive)	> 100 µM (inactive)	
CCSc1nc(COC(=O)NC)c(COC(=O)NC)n1C	> 100 µM (inactive)	> 97.9 µM (inactive)	> 100 µM (inactive)	43.4 µM (inactive)	> 100 µM (inactive)		> 79.8 µM (inactive)	> 85.7 µM (inactive)	> 100 µM (inactive)	> 89.7 µM (inactive)	> 100 µM (inactive)	73.1 µM (inactive)	> 100 µM (inactive)	> 100 µM (inactive)	34.1 µM (inactive)	99.5 µM (inactive)	> 100 µM	54 µM (inactive)	82.6 µM (inactive)	> 67.9 µM (inactive)
